From patent publication US20260008793A1, “IONIZABLE CATIONIC LIPIDS INCORPORATING SILICON” (ALDEXCHEM KFT., priority 2022, published 2026)

What was measured:
[1] = Encapsulation efficiency, RiboGreen RNA assay (Method A); assay type: physicochemical; conditions: LNP formulated by Method A
Method: The synthesized lipids were tested in term of in vitro transfection efficacy and toxicity on HeLa cells. In order to perform the mentioned biological tests, appropriate LNPs had to be formulated from the synthesized lipids. The formulation technique was different in Method A and B. The particle size, PDI and zeta potential of resulting LNPs were determined by means of Dynamic Light Scattering technique (DLS). Prior to biological testing the encapsulation efficiency (EE) of the loaded LNPs was determined by using RiboGreen RNA assay. In case of Method A Luciferase-mRNA while in case of Method B GFP-mRNA was transfected into the cells. In parallel with the transfection experiments, toxicity of the investigated LNPs was determined, in case of Method A resazurin assay while in case of Method B MTT assay was used. In the case of some lipids, the apparent pKa in LNPs was determined by using TNS titration based on the method described: Angew Chem Int Ed Engl. 2012, 51 (34), 8529-8533, doi: 10.1002/anie.201203263).
• 1. Preparation of sample stock solutions: In the top row of the 96-well plate (Row A in the plate), add 297 μL of TE buffer pH 7.4 to a single well for each sample plus a single well for a PBS blank using a multichannel pipette. • 2. Add 3 μL of sample (at 0.5 mg/ml) to these wells for a final volume of 300 μL. Add 3 μL of PBS to the blank well. Pipette to mix. This is your stock solution for each sample. The final RNA concentration of these stock solutions should be approximately 4-7 μg/mL. • 3. mRNA-LNP sample setup: • a. Add 50 μL of TE buffer pH 7.5 to the two wells directly below each sample (Rows B and C in the plate). • b. Add 50 μL of sample stock solution from Row A into the wells in Rows B and C (this assay is run in duplicate. All liquid handling should be done using a multichannel pipette). • c. Add 50 μL of Triton buffer to the wells in Rows D and E (in the plate) below each sample. • d. Add 50 μL of sample stock solution from Row A into the wells in Rows D and E. • 4. RiboGreen RNA standard curve setup: Dilute the RNA standard to produce an RNA stock at a final concentration of 20 μg/mL in TE buffer pH 7.4. The final volume should be 150 μL. Set up a standard curve (in duplicate) as using the RNA stock (20 μg/mL siRNA), TE buffer pH 7.5, and Triton buffer according the Table 2 below.
• 5. Once samples and standard curve are plated, incubate the plate at 37° C. for 10 min to lyse mRNA-LNP in the presence of Triton X-100. • 6. Meanwhile, prepare RiboGreen Solution: Sum the total number of sample wells and standard curve wells. Add three to this number, and multiply the total by 100. This is the total volume, in μL, of RiboGreen Solution needed for this assay. In a 15 mL RNAse-free Falcon tube, dilute the RiboGreen Reagent 1:100 into TE buffer pH 7.5 to the total volume calculated. • 7. Addition of RiboGreen Solution and sample readings: Remove a 96-well plate from 37° C. incubator; let it cool to room temperature as RiboGreen binding is somewhat temperature dependent. Add 100 μL of RiboGreen Solution to each well. Pop any air bubbles with a needle. Read using fluorescent plate reader (excitation=480, emission=525). • 8. Sample analysis: Use the data generated by the RiboGreen standard curve to calculate the concentration of mRNA. Transfection Efficiency with Luciferase-mRNA (Method A)

HeLa cells = assay: Transfection efficiency with Luciferase-mRNA, Nano-Glo assay (Method A); assay type: cell-based; conditions: 100 ng Luciferase (SecNLuc) mRNA, 24 h, luminescence
Summary of the method: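 LNPs carrying secreted NanoLuc mRNA (100, 50 or 10 ng/well, in Opti-MEM) added to HeLa cells at ~80% confluence and incubated 24 h. Medium luciferase activity measured by Nano-Glo luminescence about 3 min after reagent addition; toxicity tested in parallel by resazurin.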

Row | Compound | EE (%) [1] | Transfection* (Method A = 100 ng mRNA) (HeLa cells)
1 | CCCCCCCCO[Si](C)(C)OC(CCCCCCC)OCCCCCCN(CCCCO)CCCCCCOC(=O)C(CCCCCC)CCCCCCCC (stereo not shown) [Example 131, 15-heptyl-7-(4-hydroxybutyl)-17,17-dimethyl-14,16,18-trioxa-7-aza-17-silahexacosyl 2-hexyldecanoate] | 95% | 951145
2 | CCCCCCCCO[Si](C)(C)OC(CCCCCCC)OCCCCCCN(CCCCCCOC(CCCCCCC)O[Si](C)(C)OCCCCCCCC)CCC1CCCN1C (stereo not shown) [Example 121, 8-heptyl-N-(8-heptyl-10,10-dimethyl-7,9,11-trioxa-10-silanonadecyl)-10,10-dimethyl-N-(2-(1-methylpyrrolidin-2-yl)ethyl)-7,9,11-trioxa-10-silanonadecan-1-amine] | 98% | 80788.5
3 | CCCCCCCCOC(CCCCCCC)O[Si](C)(C)OCCCCCN(CCCCO)CCCCCCOC(=O)C(CCCCCC)CCCCCCCC (stereo not shown) [Example 146, 16-heptyl-7-(4-hydroxybutyl)-14,14-dimethyl-13,15,17-trioxa-7-aza-14-silapentacosyl 2-hexyldecanoate] | 97% | 5015757
4 | CCCCCCCCOC(CCCCCN(CCCCO)CCC[C@@H](C)C1CCC2C3CCC4C[C@H](OC)CC[C@]4(C)C3CC[C@@]21C)O[Si](C)(C)O[Si](C)(C)CCCCCCCC (stereo partly drawn) [Example 218, 4-(((4R)-4-((3R,10S,13R)-3-methoxy-10,13-dimethylhexadecahydro-1H-cyclopenta[a]phenanthren-17-yl)pentyl)(6-(octyloxy)-6-((1,1,3,3-tetramethyl-3-octyldisiloxaneyl)oxy)hexyl)amino)butan-1-ol] | 97% | 94651
5 | CCCCCCCCOC(CCCCCN(CCCCO)CCCCCCOC(=O)C(CCCCCC)CCCCCCCC)O[Si](C)(C)OCCCCCCCC (stereo not shown) [Example 130, 7-(4-hydroxybutyl)-15,15-dimethyl-13-(octyloxy)-14,16-dioxa-7-aza-15-silatetracosyl 2-hexyldecanoate] | 90% | 428552
6 | CC/C=C\C/C=C\C/C=C\C/C=C\C/C=C\CCCCN(CCCCO)CCCCCC(OCCCCCCCC)O[Si](C)(C)OCC(CCCCCC)CCCCCCCC (stereo not shown) [Example 202, 16-hexyl-5-((5Z,8Z,11Z,14Z,17Z)-icosa-5,8,11,14,17-pentaen-1-yl)-13,13-dimethyl-11-(octyloxy)-12,14-dioxa-5-aza-13-silatetracosan-1-ol] | 96% | 37442
7 | CCCCCCCCC(SCCCCC)C(=O)OCCCCCCN(CCCCO)CCCCCCOC(CCCCCCC)O[Si](C)(C)O[Si](C)(C)CCCCCCCC (stereo not shown) [Example 182, 15-heptyl-7-(4-hydroxybutyl)-17,17,19,19-tetramethyl-14,16,18-trioxa-7-aza-17,19-disilaheptacosyl 2-(pentylthio)decanoate] | 96% | 227368
8 | CCCCCCCCCCSC(CCCC)C(=O)OCCCCCCN(CCCCO)CCCCCCOC(CCCCCCC)O[Si](C)(C)O[Si](C)(C)CCCCCCCC (stereo not shown) [Example 171, 15-heptyl-7-(4-hydroxybutyl)-17,17,19,19-tetramethyl-14,16,18-trioxa-7-aza-17,19-disilaheptacosyl 2-(decylthio)hexanoate] | 95% | 302489
9 | CCCCCCCCOC(CCCCCN(CCCCO)CCCCCCOC(=O)C(CCCCCCCC)SCCCCC)O[Si](C)(C)O[Si](C)(C)CCCCCCCC (stereo not shown) [Example 181, 6-((4-hydroxybutyl)(6-(octyloxy)-6-((1,1,3,3-tetramethyl-3-octyldisiloxaneyl)oxy)hexyl)amino)hexyl 2-(pentylthio)decanoate] | 97% | 14238
10 | CC/C=C\C/C=C\C/C=C\C/C=C\C/C=C\CCCCN(CCCCO)CCCCCC(OCCCCCCCC)O[Si](C)(C)CCCCCCCC (stereo not shown) [Example 194, 4-((6-((dimethyl(octyl)silyl)oxy)-6-(octyloxy)hexyl)((5Z,8Z,11Z,14Z,17Z)-icosa-5,8,11,14,17-pentaen-1-yl)amino)butan-1-ol] | 96% | 152542
11 | CCCCCCCCCOC(CCCCCCC)O[Si](C)(C)OCCCCCCN(CCCCO)CCCCCCOC(=O)C(CCCCCC)CCCCCCCC (stereo not shown) [Example 141, 17-heptyl-7-(4-hydroxybutyl)-15,15-dimethyl-14,16,18-trioxa-7-aza-15-silaheptacosyl 2-hexyldecanoate] | 95% | 4651434
12 | CCCCCCCCOC(CCCCCN(CCO)CCCCCCCC(=O)OC(CCCCCCCC)CCCCCCCC)O[Si](C)(C)O[Si](C)(C)CCCCCCCC (stereo not shown) [Example 191, heptadecan-9-yl 8-((2-hydroxyethyl)(6-(octyloxy)-6-((1,1,3,3-tetramethyl-3-octyldisiloxaneyl)oxy)hexyl)amino)octanoate] | 96% | 34867
13 | CCCCCCCCO[Si](C)(C)O[Si](C)(C)OC(CCCCCCC)OCCCCCCN(CCCCO)CCCCCCOC(=O)C(CCCCCCCC)SCCCCC (stereo not shown) [Example 184, 15-heptyl-7-(4-hydroxybutyl)-17,17,19,19-tetramethyl-14,16,18,20-tetraoxa-7-aza-17,19-disilaoctacosyl 2-(pentylthio)decanoate] | 92% | 883795
14 | CCCCCCCCC(SCCCCC)C(=O)OCCCCCCN(CCCCO)CCCCCCOC(CCCCCCC)O[Si](C)(C)CCCCCCCC (stereo not shown) [Example 178, 15-heptyl-7-(4-hydroxybutyl)-17,17-dimethyl-14,16-dioxa-7-aza-17-silapentacosyl 2-(pentylthio)decanoate] | 96% | 557798
15 | CC/C=C\C/C=C\C/C=C\C/C=C\C/C=C\CCCCN(CCCCO)CCCCCC[Si](C)(C)OC(CCCCCCC)OCCCCCCCC (stereo not shown) [Example 204, 14-heptyl-5-((5Z,8Z,11Z,14Z,17Z)-icosa-5,8,11,14,17-pentaen-1-yl)-12,12-dimethyl-13,15-dioxa-5-aza-12-silatricosan-1-ol] | 97% | 282773
16 | CCCCCCCCC(CCCCCC)C(=O)OCCCCCCN(CCCCO)CCCCCCO[Si](C)(C)OC(CCCCCCC)OCCCCCCC (stereo not shown) [Example 140, 17-heptyl-7-(4-hydroxybutyl)-15,15-dimethyl-14,16,18-trioxa-7-aza-15-silapentacosyl 2-hexyldecanoate] | 93% | 6292223
17 | CCCCCCCCOC(CCCCCCC)O[Si](C)(C)OCCCCCCN(CCCCO)CCC[C@@H](C)C1CCC2C3CCC4C[C@H](OC)CC[C@]4(C)C3CC[C@@]21C (stereo partly drawn) [Example 225, 15-heptyl-5-((4R)-4-((3R,10S,13R)-3-methoxy-10,13-dimethylhexadecahydro-1H-cyclopenta[a]phenanthren-17-yl)pentyl)-13,13-dimethyl-12,14,16-trioxa-5-aza-13-silatetracosan-1-ol] | 98% | 503272
